Consider twelve compounds from patent publication US10071133B2, “Method for destroying exosomes, kit for destroying exosomes, and method for isolating exosomes derived from normal cells” (priority 2015, dated 2018).

Holding throughout (type): biochemical
Assay [1] has as its system exosome derived from human prostate cancer cells (PC3ML). Put plainly: Extraction of microRNA (miR-21) from exosome derived from prostate cancer cells, real-time PCR. Conditions: 100 μM peptide, 1×10^11 particles/mL PC3ML exosomes, 0.4 U/μL RNase inhibitor, 37° C., 24 hours; without peptide 3×10^−14M. The procedure:
A cell suspension of cell line PC3ML derived from human prostate cancer cells (provided by the National Cancer Center Research Institute) was seeded in a dish containing RPMI 1640 medium (manufactured by Thermo Fisher Scientific Inc.) containing 10% fetal bovine serum. Subsequently, the cell line was grown at 37° C. under the condition that CO2 concentration was set to 5 volume % using a CO2 incubator, and then the medium was replaced with Advanced RPMI 1640 medium (manufactured by Thermo Fisher Scientific Inc.), followed by culturing for 48 hours, and the culture solution containing exosomes was obtained. This culture solution was centrifuged at 2,000 G for 10 minutes to remove the precipitate, followed by centrifugation at 110,000 G for 70 minutes to precipitate the exosomes, and therefore an exosome fraction was recovered. The recovered exosome fraction was suspended in a phosphate buffered saline (PBS) and then stored at 4° C. Storage samples were lightly suspended with a vortex mixer (vibration mixer) before use. […]
The reverse transcription PCR solution obtained by the above described method was processed and by comparing the number of cycles on a calibration curve of microRNA using Taqman Assay primer (manufactured by Thermo Fisher Scientific Inc., Taqman microRNA Assays, Taqman Assay primer, and hsa-mir-21 or hsa-mir-16) and Real-Time PCR Master Mixes (manufactured by Thermo Fisher Scientific Inc., TaqMan Universal PCR Master Mix II, w/UNG) with StepOnePlus Real-Time PCR System, MiR-21 or miR-16 was quantified. […]
The amount of microRNA (miR-21) contained in the recovered eluate was quantified by the above described real-time PCR method. […] In addition, the destructive activity of the antimicrobial peptide used was evaluated on the basis of the following criteria based on the quantitative result of the concentration of microRNA (miR-21) performed by the real-time PCR method. […]

The subject of assay [2] is exosome fraction B derived from human breast cancer cells (MDA-MB-231-luc-D3H2LN). Put plainly: Extraction of microRNA (miR-21) from exosomes derived from human breast cancer cells, real-time PCR. Conditions: 100 μM peptide, 1×10^11 particles/mL exosomes, 0.4 U/μL RNase inhibitor, 37° C., 24 hours; without peptide 8×10^−14M. The method, then: (§1) A cell suspension of cell line MDA-MB-231-luc-D3H2LN derived from human breast cancer (=MM231-luc-D3H2LN, provided by the National Cancer Center Research Institute) was seeded in a dish containing RPMI 1640 medium (manufactured by Thermo Fisher Scientific Inc.) containing 10% fetal bovine serum. Subsequently, the cell line was grown at 37° C. under the condition that CO2 concentration was set to 5 volume % using a CO2 incubator, and then the medium was replaced with Advanced RPMI 1640 medium (manufactured by Thermo Fisher Scientific Inc.), followed by culturing for 48 hours, and therefore the culture solution containing exosomes was obtained. This culture solution was centrifuged at 2,000 G for 10 minutes to remove the precipitate, followed by centrifugation at 110,000 G for 70 minutes to precipitate the exosomes, and therefore an exosome fraction B was recovered. The recovered exosome fraction B was suspended in a phosphate buffered saline (PBS) and then stored at 4° C. Storage samples were lightly suspended with a vortex mixer (vibration mixer) before use.
(§2) MicroRNA (miR-21 or miR-16) in the reaction solution was subjected to reverse transcription PCR using reverse transcription primers (manufactured by Thermo Fisher Scientific Inc., Taqman microRNA Assays, RT primers, and hsa-mir-21 or hsa-mir-16) and a reverse transcriptase (manufactured by Thermo Fisher Scientific Inc., Taqman microRNA RT kit).
(§3) The reverse transcription PCR solution obtained by the above described method was processed and by comparing the number of cycles on a calibration curve of microRNA using Taqman Assay primer (manufactured by Thermo Fisher Scientific Inc., Taqman microRNA Assays, Taqman Assay primer, and hsa-mir-21 or hsa-mir-16) and Real-Time PCR Master Mixes (manufactured by Thermo Fisher Scientific Inc., TaqMan Universal PCR Master Mix II, w/UNG) with StepOnePlus Real-Time PCR System, MiR-21 or miR-16 was quantified. The calibration curve of microRNA was created using synthetic miR-21 (manufactured by Sigma-Aldrich Co. LLC.) or synthetic miR-16 (manufactured by Sigma-Aldrich Co. LLC.).
10 μL of the exosome fraction was prepared such that PBS contains 1×10^11 particles/mL of the exosome fraction B derived from human breast cancer cells, various antimicrobial peptides shown in the following Table 2 adjusted to 100 μM, and 0.4 U/μL of RNase inhibitor (manufactured by Toyobo Co., Ltd.), followed by incubation by being left to stand at 37° C. for 24 hours.
MicroRNA eluted into the solution was purified and recovered from the incubated solution of Example 10 above and Comparative Example 6 above by the following method.
First, 160 μL of PBS was added to the reaction solution, and then the solution was added to a centrifugal filter (manufactured by Millipore Corporation, Amicon Ultra 0.5 mL, 100K filter) and centrifuged at 14,000 G for 2 minutes. Subsequently, 100 μL of the centrifuged filtrate was recovered and introduced into a 1.5 mL tube. Next, 350 μL of RLT buffer (manufactured by QIAGEN, attached with RNeasy mini kit) and 675 μL of ethanol were added and mixed in the 1.5 mL tube. The obtained mixture was separated into two parts, and each of the separates was added onto a spin column (manufactured by QIAGEN, attached with RNeasy mini kit) followed by centrifugation at 8,000 G for 15 seconds, and the entire amount of the mixture was passed through the spin column. Thereafter, 500 μL of RPE buffer (manufactured by QIAGEN, attached with RNeasy mini kit) was added thereto and centrifuged at 8,000 G for 15 seconds. Furthermore, 500 μL of the RPE buffer was added to the spin column once more and centrifuged at 8,000 G for 15 seconds. Thereafter, the spin column was centrifuged at 14,000 G for 1 minute to remove the residual RPE buffer. Next, 30 μL of RNase free water (manufactured by QIAGEN, attached with RNeasy mini kit) was added to the spin column, left for 1 minute, and then centrifuged at 14,000 G for 1 minute, and the eluate obtained thereby was recovered. […]
For orientation: Quantitative PCR measures a nucleic acid by following its amplification.

Assay [3] relates to exosome fraction A prepared from the cell line MM231-luc-D3H2LN derived from human breast cancer cells. As to the kind of experiment: Destruction of exosomes in PBS, number of exosomes by nanoparticle analyzer (NanoSight LM10). As to conditions: 50 μM peptide, 1.36×10^10 particles/mL exosomes in PBS, 25° C., 48 hours. An excerpt: Storage samples were lightly suspended with a vortex mixer (vibration mixer) before use.

Assay [4] deals with exosome fraction B derived from human breast cancer cells versus exosome fraction derived from human mammary gland cells (MCF-10A, normal cells). Put plainly: Selectivity: miR-16 ratio, breast cancer exosomes versus mammary gland normal cell exosomes (Formula 1). Conditions: for mir-16 ratio: Formula 1, cancer/normal (MCF-10A), 100 μM peptide, 37° C., 24 hours; for Selectivity: from miR-16 ratio versus Comparative Example 8, breast cancer vs MCF-10A exosomes. The method, then: as §1
A cell suspension of cell line MCF 10A derived from human mammary epithelial cells (provided by the National Cancer Center Research Institute) was seeded in a dish containing Mammary Epithelium Cell Basal Medium (manufactured by Lonza). Subsequently, the cell line was grown at 37° C. under the condition that CO2 concentration was set to 5 volume % using a CO2 incubator, and then the medium was replaced with a fresh medium, followed by culturing for 48 hours, and the culture solution containing exosomes was obtained. This culture solution was centrifuged at 2,000 G for 10 minutes to remove the precipitate, followed by centrifugation at 110,000 G for 70 minutes to precipitate the exosomes, and an exosome fraction was recovered. The recovered exosome fraction was suspended in a phosphate buffered saline (PBS) and then stored at 4° C. Storage samples were lightly suspended with a vortex mixer (vibration mixer) before use.
as §2, §3
10 μL of the exosome fraction was prepared such that PBS contains 1×10^11 particles/mL of the exosome fraction B derived from human breast cancer cells, various antimicrobial peptides shown in the following Table 4 adjusted to 100 μM, and 0.4 U/μL of RNase inhibitor (manufactured by Toyobo Co., Ltd.), followed by incubation by being left to stand at 37° C. for 24 hours.
Thereafter, the eluted MicroRNA (miR-16) was purified and recovered from the incubated solution by the same method as the above described method for extraction from the incubated solution of Examples 10 and 11 above and Comparative Examples 6 and 7 above. […]

In assay [5] the test system is exosomes derived from cancer cells. Put plainly: Preliminary examination of destructive ability of anticancer peptides against exosomes derived from cancer cells. The text has this:
Specifically, the present inventors have come to realize the following knowledge.

For the compound K6L9 (LKLLKKLLKKLLKLL), the figures for the “Destructive activity (concentration of microRNA miR-21 in eluate)” value (from here on “Destructive activity”) in assay [1] and in assay [2] were “A (the concentration of microRNA is 10×10^−14M or more)” and “B (the concentration of microRNA is 10×10^−14M to 50×10^−14M)”, respectively.

For LL-37, in assay [3], the “number of exosomes in the solution” value is on record as 1.09×10^9 particles/mL. For the same compound, in assay [4], the mir-16 ratio was 18 and the Selectivity entry is “B (evaluated as “B” in a case where the calculated miR-16 value was higher than the miR-16 ratio of Comparative Example 8)”. The “Destructive activity” value in assay [2] is “A (the concentration of microRNA is 50×10^−14M or more)”.

In the case of Nisin [Example 3], the “number of exosomes in the solution” value in assay [3] is reported as 4.51×10^9 particles/mL.

`CC[C@H](C)[C@H](NC(=O)CN)C(=O)NCC(=O)N[C@@H](C)C(=O)N[C@H](C(=O)N[C@@H](CC(C)C)C(=O)N[C@@H](CCCCN)C(=O)N[C@H](C(=O)N[C@@H](CC(C)C)C(=O)N[C@H](C(=O)N[C@H](C(=O)NCC(=O)N[C@@H](CC(C)C)C(=O)N1CCC[C@H]1C(=O)N[C@@H](C)C(=O)N[C@@H](CC(C)C)C(=O)N[C@H](C(=O)N[C@@H](CO)C(=O)N[C@@H](Cc1c[nH]c2ccccc12)C(=O)N[C@H](C(=O)N[C@@H](CCCCN)C(=O)N[C@@H](CCCNC(=N)N)C(=O)N[C@@H](CCCCN)C(=O)N[C@@H](CCCNC(=N)N)C(=O)N[C@@H](CCC(N)=O)C(=O)N[C@@H](CCC(N)=O)C(N)=O)[C@@H](C)CC)[C@@H](C)CC)[C@@H](C)O)[C@@H](C)O)C(C)C)C(C)C` [Melittin]: in assay [4], the mir-16 ratio came out at 42 and the Selectivity entry is listed as “B (evaluated as “B” in a case where the calculated miR-16 value was higher than the miR-16 ratio of Comparative Example 8)”. For the same compound, in assay [2], the “Destructive activity” value is listed as “A (the concentration of microRNA is 50×10^−14M or more)”.

Take Maximin 1: in assay [4], the mir-16 ratio came to 22 and the Selectivity entry was “B (evaluated as “B” in a case where the calculated miR-16 value was higher than the miR-16 ratio of Comparative Example 8)”. In addition, in assay [2], the “Destructive activity” value is listed as “B (the concentration of microRNA is 10×10^−14M to 50×10^−14M)”.

On to Polybia-MPI, for which the “Destructive activity” value in assay [1] is given as “A (the concentration of microRNA is 10×10^−14M or more)”; in assay [2], “B (the concentration of microRNA is 10×10^−14M to 50×10^−14M)”.

Regarding Maximin 4, in assay [4], the mir-16 ratio is 311 and the Selectivity entry was “B (evaluated as “B” in a case where the calculated miR-16 value was higher than the miR-16 ratio of Comparative Example 8)”. In addition, the “Destructive activity” value in assay [2] is given as “B (the concentration of microRNA is 10×10^−14M to 50×10^−14M)”.

As to Lactoferricin [Example 4], the “number of exosomes in the solution” value in assay [3] is reported as 7.47×10^9 particles/mL.

As to “A6K: amino acid sequence AAAAAAK (Ac-AAAAAAK-NH2)”, the “destructive ability against the exosomes derived from cancer cells” value (“destructive ability” for short) in assay [5] was “no or a low level”. Also, in assay [2], the “Destructive activity” value is “D (the concentration of microRNA is less than 10×10^−14M)”.

As to “PR-39 (RRRPRPPYLPRPRPPPFFPPRLPPRIPPGFPPRFPPRFP)”, the “destructive ability” value in assay [5] is reported as “no or a low level”. In assay [2], the “Destructive activity” value is listed as “D (the concentration of microRNA is less than 10×10^−14M)”.

For “mCRAMP (GLLRKGGEKIGEKLKKIGQKIKNFFQKLVPQPEQ)”, in assay [4], the mir-16 ratio stood at 9 and the Selectivity entry was “B (evaluated as “B” in a case where the calculated miR-16 value was higher than the miR-16 ratio of Comparative Example 8)”. Moreover, in assay [2], the “Destructive activity” value is listed as “A (the concentration of microRNA is 50×10^−14M or more)”.

Turning to Hepcidin TH2-3, the “destructive ability” value in assay [5] is “no or a low level”. The “Destructive activity” value in assay [2] is given as “D (the concentration of microRNA is less than 10×10^−14M)”.
